Laboratory results from US20260364184A1, “COMPOUND BASED ON OXOISOINDOLINYL-SUBSTITUTED TETRAHYDROPYRIMIDINE-DIONE AND USE THEREOF” (GLUETACS THERAPEUTICS (SHANGHAI) CO., LTD., priority 2023, published 2026).

Assays:
Type in all cases: cell-based
[1] = test system: Human T lymphocytic leukemia cell line (Jurkat); experiment: Inhibition of Jurkat cell proliferation (CellTiter luminescent viability); conditions: Homo sapiens, Table IF3, AR inhibitor-based, 96 hours; for inhibition at 0.01 µM: 10 nM, read-out: Inhibition Rate at 10 nM (%); for inhibition at 0.5 µM: 500 nM, read-out: Inhibition Rate at 500 nM (%)
Method: The tumor cells used herein were cultured in a cell culture medium listed in table 3 at 37 °C in an incubator with 5% CO2. Prior to experimentation, all cell lines used were correctly identified by STR profiling, and tested negative for mycoplasma contamination using a mycoplasma detection kit through routine screenings.
The IC50 values of the compounds of the present disclosure (including the compounds in Table 1, Table 2, and Examples 1-468) were determined using the CellTiter-Meiluncell Luminescent Cell Viability Assay Kit from Dalian Meilun Biotech Co., Ltd. The detailed procedure is as follows: Tumor cells were seeded in 96-well cell culture plates at the densities specified in Table 4. On the following day, the test compounds of the present disclosure were subjected to serial dilution. The dilution can be performed according to one of the following two methods: • (1) The first dilution method: The test compounds of the present disclosure (including the compounds in Table 1, Table 2, and Examples 1-468) were subjected to 5-fold serial dilutions starting from a highest concentration of 2000 μM, resulting in a total of 9 concentrations from high to low (2000, 400, 80, 16, 3.2, 0.64, 0.128, 0.0256, 0.00512 μM). Subsequently, 0.5 μL of the test compound dilution was transferred into the 96-well plate containing the cells, with each well containing 100 μL of cell culture medium. […] Into the 96-well plate, the diluted test compounds and corresponding detection reagents were added, resulting in final test compound concentrations of 500 nM and 10 nM, respectively. The experimental procedure is described below using the diluted 2 μM test compound as an example.
0.5 μL of the aforementioned diluted compound of the present disclosure (including the compounds in Table 1, Table 2, and Examples 1-468) was added to the seeded cells in 100 μL of medium, yielding a final test compound concentration of 10 nM. After the cells were treated with the compounds of the present disclosure for a specified period, the cell viability assay reagent was added to the culture medium according to the kit's instructions to determine cell viability. […] All controls were treated using the same procedure as the compounds of the present disclosure. The growth inhibition curves for the compounds of the present disclosure were plotted using Prism GraphPad software, and the IC50 values were calculated therefrom.

[2] = test system: Human acute lymphocytic leukemia T lymphocytes cell line (CCRF-CEM); experiment: Inhibition of CCRF-CEM cell proliferation (CellTiter luminescent viability); conditions: Table IF2, AR inhibitor-based; for inhibition at 0.01 µM / inhibition at 0.5 µM: Homo sapiens, 96 h; for inhibition at 0.01 µM: read-out: Inhibition Rate at 10 nM (%); for inhibition at 0.5 µM: 500 nM, read-out: Inhibition Rate at 500 nM (%)
[3] = test system: Human diffuse large B-cell lymphoma cell line (TMD8); experiment: Inhibition of TMD8 cell proliferation (CellTiter luminescent viability); conditions: Table IF1, AR inhibitor-based; for inhibition at 0.01 µM / inhibition at 0.5 µM: Homo sapiens, TMD8, 96 h; for inhibition at 0.01 µM: read-out: Inhibition Rate at 10 nM (%); for inhibition at 0.5 µM: TMD8, 500 nM, read-out: Inhibition Rate at 500 nM (%)
AR = biological target: T1, AR (Homo sapiens, UniProt P10275); experiment: Western blot degradation of AR; conditions: LnCap Cell; 24 hours
T1 construct: expression of target proteins in cells; endogenous in cells
T1 sequence (P10275 1-920): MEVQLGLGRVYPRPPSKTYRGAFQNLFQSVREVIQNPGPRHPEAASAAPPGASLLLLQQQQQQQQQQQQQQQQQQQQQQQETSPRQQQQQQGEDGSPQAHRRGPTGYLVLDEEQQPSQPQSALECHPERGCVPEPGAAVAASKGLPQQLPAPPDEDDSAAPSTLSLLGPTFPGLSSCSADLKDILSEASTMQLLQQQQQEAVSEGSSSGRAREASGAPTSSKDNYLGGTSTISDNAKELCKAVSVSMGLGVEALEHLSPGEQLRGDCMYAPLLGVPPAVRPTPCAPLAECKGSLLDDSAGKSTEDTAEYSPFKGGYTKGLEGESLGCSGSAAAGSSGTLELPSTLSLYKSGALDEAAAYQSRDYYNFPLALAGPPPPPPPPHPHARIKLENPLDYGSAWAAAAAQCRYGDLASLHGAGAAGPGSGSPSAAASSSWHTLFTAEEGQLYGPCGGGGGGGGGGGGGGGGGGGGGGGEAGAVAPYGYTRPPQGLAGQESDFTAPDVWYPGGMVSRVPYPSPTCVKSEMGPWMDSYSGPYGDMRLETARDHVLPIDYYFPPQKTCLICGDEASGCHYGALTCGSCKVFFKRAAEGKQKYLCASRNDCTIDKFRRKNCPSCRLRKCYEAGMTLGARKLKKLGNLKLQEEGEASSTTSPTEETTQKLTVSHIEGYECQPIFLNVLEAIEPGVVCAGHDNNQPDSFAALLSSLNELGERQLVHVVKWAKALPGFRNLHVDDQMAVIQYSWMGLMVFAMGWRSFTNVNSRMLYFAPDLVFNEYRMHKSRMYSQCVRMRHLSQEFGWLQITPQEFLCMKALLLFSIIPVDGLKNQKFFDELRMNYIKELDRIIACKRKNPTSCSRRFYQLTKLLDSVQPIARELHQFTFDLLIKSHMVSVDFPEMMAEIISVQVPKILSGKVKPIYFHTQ
Method: Conventional Western blot assay was performed to evaluate the effects of the compounds of the present disclosure on the expression of target proteins in cells.
(1) Cell Seeding and Protein Harvesting: The selected cells were processed according to the cell seeding procedure and protein harvesting procedure in Table II-2.
(2) To the collected supernatant, 5×SDS sample loading buffer was added, followed by denaturation at 95 °C for 5 minutes. The denatured samples were then separated by SDS-PAGE electrophoresis on a polyacrylamide gel. Proteins were transferred to a nitrocellulose membrane (0.45 μm NC membrane), blocked with blocking buffer at room temperature for 1 hour, and subjected to antibody incubation and development procedures according to the antibody manufacturer's instructions (Cell Signaling Technology).
Half-Maximal Degradation Concentration value (the drug concentration required for degrading proteins by 50%, abbreviated as DC50) reads method: comparing the grayscale values of Western blot bands from drug-treated samples with those from blank DMSO-treated controls, and identifying the drug concentration range at which the grayscale value is half that of the DMSO-treated control bands.
DC50 values can be calculated using ImageJ software to measure grayscale values of Western blot bands from drug-treated samples. The concentration-response curve is fitted to estimate the drug concentration corresponding to half the grayscale value.
Target protein remaining (%) refers to the percentage of target protein remaining in cells after treatment with protein degrader compounds.
Calculation method for target protein remaining (%): Use ImageJ software to measure grayscale values of Western blot bands from drug (protein degrader)-treated samples. The grayscale value of drug-treated bands is divided by that of internal control protein bands, and the resulting quotient is normalized to obtain the relative percentage of remaining target protein after protein degrader treatment.
Target protein degradation rate (%)=1−target protein remaining (%).

| Structure (SMILES) | inhibition at 0.01 µM [1] [%] | inhibition at 0.5 µM [1] [%] | inhibition at 0.01 µM ([2]; 10 nM) [%] | inhibition at 0.5 µM [2] [%] | inhibition at 0.01 µM ([3]; TMD8, 10 nM) [%] | inhibition at 0.5 µM [3] [%] | Degradation of substrate protein AR (substrate protein remaining %) (AR) | Inhibition Rate at 10 nM (%) ([2]; 10 nM, 96 hours, 0.01 µM) | Inhibition Rate at 10 nM (%) ([3]; TMD8, 10 nM, 96 hours, 0.01 µM) |
| --- | --- | --- | --- | --- | --- | --- | --- | --- | --- |
| CC1(C)[C@H](NC(=O)c2ccc(N3CCC(CN4CCN(c5cc(F)c6c(c5)C(=O)N(N5CCC(=O)NC5=O)C6=O)CC4)CC3)nc2)C(C)(C)[C@H]1Oc1ccc(C#N)c(Cl)c1 [GT-05346, N-((1r,3r)-3-(3-chloro-4-cyanophenoxy)-2,2,4,4-tetramethylcyclobutyl)-6-(4-((4-(2-(2,4-dioxotetrahydropyrimidin-1(2H)-yl)-7-fluoro-1,3-dioxoisoindolin-5-yl)piperazin-1-yl)methyl)piperidin-1-yl)nicotinamide] | 0 to 5 | 20 to 30 | 15 to 20 | 20 to 30 | 15 to 20 | 35 to 40 | A (0%≤substrate protein remaining %≤80%) |  |  |
| N#Cc1ccc(O[C@H]2CC[C@H](NC(=O)c3ccc(N4CCC(CN5C6CC5CN(c5ccc7c(c5)C(=O)N(N5CCC(=O)NC5=O)C7=O)C6)CC4)nn3)CC2)cc1Cl [GT-05821, N-((1r,4r)-4-(3-chloro-4-cyanophenoxy)cyclohexyl)-6-(4-((3-(2-(2,4-dioxotetrahydropyrimidin-1(2H)-yl)-1,3-dioxoisoindolin-5-yl)-3,6-diazabicyclo[3.1.1]heptan-6-yl)methyl)piperidin-1-yl)pyridazine-3-carboxamide] | 10 to 15 | 20 to 30 | 15 to 20 | 30 to 40 | 15 to 20 | 40 to 60 | A (0%≤substrate protein remaining %≤80%) |  |  |
| CC1(C)[C@H](NC(=O)c2ccc(N3CCC(CN4CCN(c5ccc6c(c5)C(=O)N(N5CCC(=O)NC5=O)C6=O)CC4)CC3)nc2)C(C)(C)[C@H]1Oc1ccc(C#N)c(Cl)c1 [GT-05301, N-((1r,3r)-3-(3-chloro-4-cyanophenoxy)-2,2,4,4-tetramethylcyclobutyl)-6-(4-((4-(2-(2,4-dioxotetrahydropyrimidin-1(2H)-yl)-1,3-dioxoisoindolin-5-yl)piperazin-1-yl)methyl)piperidin-1-yl)nicotinamide] | 10 to 15 | 20 to 30 |  | 30 to 40 |  | 40 to 60 | A (0%≤substrate protein remaining %≤80%) | IFb5 (15% ≤ IFb5 < 20%) | IFa6 (25% ≤ IFa6 < 30%) |
| N#Cc1ccc(O[C@H]2CC[C@H](NC(=O)c3ccc(N4CCC(CN5C6CCC5CN(c5ccc7c(c5)C(=O)N(N5CCC(=O)NC5=O)C7=O)C6)CC4)nn3)CC2)cc1Cl [GT-05824, N-((1r,4r)-4-(3-chloro-4-cyanophenoxy)cyclohexyl)-6-(4-((3-(2-(2,4-dioxotetrahydropyrimidin-1(2H)-yl)-1,3-dioxoisoindolin-5-yl)-3,8-diazabicyclo[3.2.1]octan-8-yl)methyl)piperidin-1-yl)pyridazine-3-carboxamide] | 5 to 10 | 30 to 40 | 10 to 15 | 30 to 40 | 15 to 20 | 40 to 60 | A (0%≤substrate protein remaining %≤80%) |  |  |
| CC1(C)[C@H](NC(=O)c2ccc(N3CCC(CN4CC5CCC(C4)N5c4ccc5c(c4)C(=O)N(N4CCC(=O)NC4=O)C5=O)CC3)nc2)C(C)(C)[C@H]1Oc1ccc(C#N)c(Cl)c1 [GT-05305, N-((1r,3r)-3-(3-chloro-4-cyanophenoxy)-2,2,4,4-tetramethylcyclobutyl)-6-(4-((8-(2-(2,4-dioxotetrahydropyrimidin-1(2H)-yl)-1,3-dioxoisoindolin-5-yl)-3,8-diazabicyclo[3.2.1]octan-3-yl)methyl)piperidin-1-yl)nicotinamide] | 10 to 15 | 40 to 60 | 20 to 30 | 40 to 60 | 25 to 30 | 40 to 60 | A (0%≤substrate protein remaining %≤80%) |  |  |
| N#Cc1ccc(O[C@H]2CC[C@H](NC(=O)c3ccc(N4CCC(CN5CC6CCC(C5)N6c5ccc6c(c5)C(=O)N(N5CCC(=O)NC5=O)C6=O)CC4)nn3)CC2)cc1Cl [GT-05229, N-((1r,4r)-4-(3-chloro-4-cyanophenoxy)cyclohexyl)-6-(4-((8-(2-(2,4-dioxotetrahydropyrimidin-1(2H)-yl)-1,3-dioxoisoindolin-5-yl)-3,8-diazabicyclo[3.2.1]octan-3-yl)methyl)piperidin-1-yl)pyridazine-3-carboxamide] | 20 to 30 | 40 to 60 | 30 to 40 | 60 to 80 | 40 to 60 | 60 to 80 | A (0%≤substrate protein remaining %≤80%) |  |  |
